Patent publication US8334248B2, “Aqueous solution of olanexidine, method of preparing the aqueous solution, and disinfectant” (Otsuka Pharmaceutical Co., Ltd., priority 2003, dated 2012)

Assay: Solubility in water
Format: physicochemical
Text: Olanexidine has very poor solubility in water, and hitherto known salts of olanexidine are also poorly soluble in water. […] Consequently, sufficient bactericidal activity cannot be expected of an aqueous solution merely having olanexidine dissolved therein, and moreover, depending on the conditions the olanexidine may precipitate out.

solubility in water (at 0° C.) | SMILES | solubility in water relative to olanexidine hydrochloride (compared with less than 0.05% (W/V) of the hydrochloride)
– | CCCCCCCCNC(=N)NC(=N)NCc1ccc(Cl)c(Cl)c1 [free olanexidine, 1-(3,4-dichlorobenzyl)-5-octylbiguanide] | a further order of magnitude less than this
less than 0.05 % (W/V) | CCCCCCCCN=C(N)NC(N)=NCc1ccc(Cl)c(Cl)c1.Cl [olanexidine hydrochloride] | –
